Laboratory results: publication PMC5462101 (Future medicinal chemistry, 2015)
Marks after values point to notes of the source that are not given here.

How the values were obtained:
[1] = Reducing ability in DPPH assay; settings: compound 100 μM
Method: Previous work has shown that pterins, their dihydro- and their tetrahydro-derivatives can each be antioxidants or pro-oxidants, depending on the particular conditions. In the present study, several assays were used to assess in vitro antioxidant activity in order to obtain representative information; each method involves the generation of a different radical.
Determination of reducing activity using 1,1-diphenyl-2-picrylhydrazyl radical (DPPH)
To a solution of DPPH in absolute ethanol was added an equal volume of the compound to be tested dissolved in DMSO (20 µL). From a stock solution (10 mM) was prepared a final solution of 100 µM for evaluation of the compounds. The absorbance at 517 nm was recorded after 20 and 60 min at room temperature (Table 2).

[2] = Competition with DMSO for hydroxyl radicals; settings: compound at 100 µM, Fe3+/ascorbic acid, DMSO 33 mM
Method: Competition of the novel pteridine derivatives with dimethyl sulfoxide for hydroxyl radicals was measured. […] The majority of the derivatives were excellent scavengers of hydroxyl radicals with activity higher than the reference compound 6-hydroxy-2,5,7,8-tetramethylchroman-2-carboxylic acid (Trolox).
Competition of pteridine derivatives with DMSO for hydroxyl radicals
Hydroxyl radicals generated by the Fe^3+/ascorbic acid system were detected by determination of formaldehyde produced from the oxidation of DMSO, according to the procedure of Nash. The reaction mixture comprised ethylenediaminetetracetic acid (EDTA) (0.1 mM), Fe^3+ (167 μM), DMSO (33 mM) in phosphate buffer (50 mM, pH 7.4), ascorbic acid (10 mM) and the compound to be tested at 100 µM. After incubation at 37 °C for 30 min the mixture was quenched with aqueous trichloroacetic acid (17% w/v) (Table 2) and the percentage competition of the tested compounds with DMSO for hydroxyl radicals was determined (Table 2).

[3] = Inhibition of linoleic acid peroxidation (AAPH); settings: linoleic acid peroxidation initiated by AAPH, 37 °C, pH 7.4
Text: Azo compounds that generate free radicals through spontaneous thermal decomposition are useful for in vitro studies of free radical production. The water-soluble AAPH has been extensively used as a clean and controllable source of thermally produced alkylperoxyl free radicals. […] Evidently, the presence of 6,7-dimethyl groups on the pteridine ring greatly enhances protection against lipid peroxidation; the nature of the alkyl group and ring size on the 2-substituent has some, but much less, effect. […] The role of lipophilicity (as assessed from calculated clogP values; Table 1) is not clear, but substituent bulk plays a significant role.
Inhibition of linoleic acid peroxidation
Production of conjugated diene hydroperoxide by oxidation of linoleic acid in an aqueous dispersion was monitored at 234 nm. 2,2’-Azobis(2-amidinopropane) dihydrochloride (AAPH) was used as a free radical initiator. This assay was used to follow oxidative changes and to determine the inhibition of the peroxidation of sodium linoleate by each tested compound. A dispersion of sodium linoleate (16 mM, 10 μL) was added to the UV cuvette containing phosphate buffer (0.05 M, 0.93 mL) at pH 7.4 and kept in a thermostat at 37 °C. The oxidation reaction was initiated at 37 °C under air by the addition of AAPH solution (40 mM, 50 μL). Oxidation was carried out in the presence of aliquots (10 μL) of the tested compound. In the assay without antioxidant, lipid oxidation was measured in the presence of DMSO (10 μL). The rate of oxidation at 37 °C was monitored by recording the increase in absorption at 234 nm caused by conjugated diene hydroperoxide formation (Table 2).
(§1) IC50 determinations. OriginPro 8 was used to determine IC50 values from the sigmoidal line fitted to a graph of log[concentration] against the average percentage inhibition from two independent experiments, with at least 6 different concentrations. The SEM is the calculated standard error in the IC50 value of the fitted line.

[4] = molecular target: T1, soybean lipoxygenase (Glycine max, UniProt P08170); assay: Inhibition of soybean lipoxygenase; type: biochemical; settings: for inhibition at 100 µM: compound at 100 µM, read-out: Lipoxygenase inhibitory activity (% at 100 µM)
T1 construct: purchased Sigma
T1 sequence (P08170 1-839): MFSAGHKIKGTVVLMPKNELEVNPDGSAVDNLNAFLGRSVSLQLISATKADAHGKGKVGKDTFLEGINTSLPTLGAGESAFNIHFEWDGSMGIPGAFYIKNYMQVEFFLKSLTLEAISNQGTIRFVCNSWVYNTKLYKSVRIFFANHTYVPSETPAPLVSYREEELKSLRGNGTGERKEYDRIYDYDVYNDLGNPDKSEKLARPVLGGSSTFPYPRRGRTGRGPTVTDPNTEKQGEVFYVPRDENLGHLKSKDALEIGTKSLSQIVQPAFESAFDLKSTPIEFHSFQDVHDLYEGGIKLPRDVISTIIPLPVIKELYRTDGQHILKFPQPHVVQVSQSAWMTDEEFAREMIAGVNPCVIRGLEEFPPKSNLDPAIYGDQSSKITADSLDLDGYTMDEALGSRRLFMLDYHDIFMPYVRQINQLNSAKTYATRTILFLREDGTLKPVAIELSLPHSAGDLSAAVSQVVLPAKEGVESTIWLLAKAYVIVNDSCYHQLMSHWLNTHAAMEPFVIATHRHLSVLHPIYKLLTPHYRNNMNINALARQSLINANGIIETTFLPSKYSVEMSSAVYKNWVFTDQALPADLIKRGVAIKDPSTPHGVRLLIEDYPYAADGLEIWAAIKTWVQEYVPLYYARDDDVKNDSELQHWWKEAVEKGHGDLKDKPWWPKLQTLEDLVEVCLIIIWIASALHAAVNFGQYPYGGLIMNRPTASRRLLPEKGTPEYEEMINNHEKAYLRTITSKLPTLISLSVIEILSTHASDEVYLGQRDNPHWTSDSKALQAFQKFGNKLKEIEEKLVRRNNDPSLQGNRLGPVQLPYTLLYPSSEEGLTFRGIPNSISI
Method: The substituted pteridines prepared were assayed for inhibition of soybean lipoxygenase (Table 1) (Supplementary Information). Many studies have used readily obtainable soybean lipoxygenase, which is a homologue of mammalian lipoxygenase and well examined. The availability of soybean LOX and its well-characterized crystal structure led to its use in this study.
Determination of soybean lipoxygenase inhibition
A solution in DMSO of each compound to be tested was incubated at room temperature with sodium linoleate (0.1 mM) and a solution of soybean lipoxygenase (EC 1.13.11.12) (1:9 x 10^4 w/v in saline, 0.2 mL, Sigma). The conversion of sodium linoleate to 13-hydroperoxylinoleic acid was monitored by observation at 234 nm and compared with the value of appropriate standard inhibitor (Table 1).
as §1

[5] = tested on: rat model of colitis; assay: Acetic acid-induced colitis in the rat; type: in vivo, Fisher 344 rats; settings: 0.01 mmol/kg intrarectally, 4% acetic acid; for Change in body weight (%): assessed after 48 h; for Score (levels 0–5): colonic damage score, 48 h
Method: LOX has also been associated with inflammation and ulcerative colitis. In the present study, a model for colitis involving intracolonic administration of aqueous 4% acetic acid in the rat was used, leading to acute inflammatory reaction. Treated rats presented partial to diffuse petechial bleeding, single erosion and limited ulceration indicating an overall healing effect of the compounds. Substituted pteridines presenting a satisfactory combination of activities 5a, 18a, 18d and 18f were tested using this in vivo model characterized by diffuse exfoliated mucosa as well as multiple and extended erosion and ulcers of the colon (Table 3). No mortality was encountered.
(§2) Fisher 344 rats (150-200 g) were housed in wire-mesh cages, given standard laboratory chow and tap water ad libitum and acclimatized for one week before experiments. Rats were randomly assigned to experimental groups. All in vivo experiments conform to the law for the protection of experimental animals (Republic of Greece) and are registered at the Veterinary Administration of the Republic of Greece in accordance with recognized guidelines on animal experimentation including Directive 2010/63/EU.
Induction of colitis
Rats were anesthetized using pentobarbital (50 mg/kg ip) prior to administration with 1 mL of either vehicle (0.9% w/v saline) or the compound under study at doses 0.01mmol/kg intrarectally via a polyethylene cannula (fitted to a 1 mL syringe) with the tip inserted approximately 8 cm into the anus. Following 30 min pretreatment, 1 ml of 4% acetic acid was introduced into the colon intrarectally and, after exposure for 60 s, the excess fluid was withdrawn. The luminal content was then expelled by instillation of air (10 mL), the ligature was removed and the abdomen was sutured. Both groups of rats were allowed to recover with food and water and the resulting injury was assessed after 48 h. The experiment was conducted using two groups, each containing 3 animals.
Assessment of colonic damage. Rats were weighed, inspected for the presence of diarrhea and sacrificed using diethyl ether. The colons were excised and opened longitudinally, rinsed with cold saline, pinned out and observed under a dissecting microscope. Colonic damage was scored using the system of MacPherson and Pfeiffer: 0 – normal appearance, 1- hyperaemia, 2 – patchy petechial bleeding, 3 – diffuse petechial bleeding, 4 – partial exfoliated mucosa or single erosion or ulceration, 5 – diffuse exfoliated mucosa or multiple erosions or ulceration. The presence or absence of adhesions between the colon and the surrounding tissues was recorded. Scoring of the colonic damage (Table 4) was carried out by an observer unaware of the treatment.

[6] = tested on: carrageenin-induced rat paw edema; assay: Inhibition of carrageenin-induced rat paw edema; type: in vivo, Fisher 344 rats; settings: rat, 0.01 mmol/kg intraperitoneally, 1 h, mean of two experiments
Method: The incipient pattern of this edema is characterized by the effects of histamine and 5-hydroxytryptamine. After 1 h, reduction of edema in the rat paw achieved by the pteridine 18f was appreciably greater than the reduction induced by the reference compound indomethacin, a nonselective COX-inhibitor and commonly used nonsteroidal anti-inflammatory drug. Thus, 18f and some related pteridines offer significant protection against reactive oxygen species produced in a model of colitis, probably on account of their properties as antioxidants and radical scavengers.
as §2
Inhibition of carrageenin-induced edema
Edema was induced in the right hind paw of Fisher 344 rats (150-200 g) by intradermal injection of aqueous carrageenin (0.1 mL, 2%). Pregnant females were excluded from the study, but both sexes were used. Each group comprised 6-15 rats which were bred and housed under standard conditions and received a diet of commercial food pellets and water ad libitum during maintenance but were entirely fasted during the experiment period. Each compound (0.01 mmol/kg body weight) was suspended in water to which had been added a few drops of Tween 80 and then the mixture was ground in a mortar prior to being administered intraperitoneally and simultaneously with the carrageenin injection. Rats were euthanized 1 h after injection, and the difference between the weight of the injected and non-injected paws was calculated for each animal. The change in paw weight was compared with that in control animals (treated with water) and the inhibition of the edema was expressed as a percentage (Table 4). […]

Row | SMILES | RA (%) 100μM 20 min [1] | RA (%) 100μM 60 min [1] | Hydroxyl radicals scavenged (%) [2] | IC50 [3] | IC50 ([4]; sodium linoleate 0.1 mM, read-out: Lipoxygenase inhibitory activity (IC50)) | Change in body weight (%) [5] | Score (levels 0–5) [5] | inhibition at 100 µM [4] | Reduction of rat paw edema after 1 h (%) [6]
1 | CN1CCN(c2nc(NCc3cccnc3)c3nccnc3n2)CC1 [Compound 18d] | 10% | 11% | 95% | 32.5 ± 1 µM | 0.1 ± 0.01 µM | -7% | One rat exhibited patchy petechial bleeding (2), and another diffuse petechial bleeding (3); the rest presented partial exfoliated mucosa or single erosion or ulcer | – | –
2 | CN1CCN(c2nc(N)c3nccnc3n2)CC1 [Compound 5a, 2-(4-methylpiperazin-1-yl) pteridin-4-amine] | 15% | 14% | 98% | 41 ± 1.1 µM | – | -1.1% | – | 37.5 ± 0.1% | –
3 | CN1CCN(c2nc(NCc3ccccc3)c3nccnc3n2)CC1 [Compound 18a] | 2% | 7% | 91% | 22 ± 0.8 µM | – | -4.2% | One rat exhibited hyperemia (1); the rest presented petechial bleeding (patchy to diffuse) (2–3) | 31.5 ± 0.2% | –
4 | COc1ccc2c(c1)c(CC(=O)O)c(C)n2C(=O)c1ccc(Cl)cc1 [Indomethacin, indomethacin, reference compound] | – | – | – | – | – | – | – | – | 25 ^† %
